Results: patent US20140088006A1, “Stem Cell Mobilization and Tissue Repair and Regeneration” (Wellstat Therapeutics Corporation, priority 2011, published 2014)
“And” between values parts separate entries of the source, which are not always exact repeats. Equal values may be shown once. “Also recorded” adds a separate entry of the source. No end group written: not given here.

Experiments:
[1] = system: human umbilical cord blood CD34+ cells; assay: Transwell migration of CD34+ cells toward SDF-1α; type: cell-based
Method: CD34^+ cell migration toward 100 ng/mL SDF-1α in a Corning Transwell device (24 well format, 5 μm pore size, polycarbonate membrane) was studied with and without Compound X and in the presence or absence of either anti-CXCR4 antibody or the CXCR4 antagonist AMD3100.
The CD34^+ population of cells from human umbilical cord blood was obtained from Lonza, defrosted and expanded ex vivo with cytokine cocktail for 6 days according to standard procedures. Briefly, 10 wells of two 12 well dishes were seeded at a density of 8×10^4 cells per well in 2 mL of CellGenix serum free growth medium (SCGM). Cells were allowed to expand in a 37° C. incubator (5% CO2, 86% RH) for 6 days. During the expansion, the 10 wells of one of the two plates received treatments of Compound X to a final concentration of 5 ng/mL (10 μL from freshly prepared 1 μg/mL stock in SCGM) at 24 hours and 72 hours after initiation of the culture.
3 hours prior to the start of the migration assay, both control and Compound X expanded cells were pulsed with either 0, 5 ng/mL or 5 μg/mL Compound X. Migration assay was performed according to the method described (Tavor et al. 2005). Cells were centrifuged for 5 minutes at 1100 RPM and resuspended at a density of 2×10^6 cells/mL in CellGenix SCGM serum free medium containing 1% Fraction V BSA either in the presence or absence of 5 ng/mL or 5 μg/mL Compound X for 3 hours. The feeder tray (bottom) was prepared with 600 μL of serum free SCGM supplemented with 1% BSA in the presence or absence of SDF-1α. All treatments were conducted in triplicate. The wells of the migration chamber (top) received 100 μL of cells from the 2×10^6 cells/mL suspensions, preincubated with 5 ng/mL or 5 μg/mL Compound X or Control. All treatments were conducted in triplicates. The plates were placed in a 37° C. incubator (5% CO2, 86% RH) and cells were allowed to migrate for 4 hours. […]
The cells were thawed at room temperature. […] 150 μL of the resulting cell lysates were transferred to a new 96 well plate and the fluorescence was read on a […] SpectraMax M2 fluorimeter (ex 485, em 538). […]

[2] = system: CFU-GEMM / CFU-GM colony-forming cells; assay: CFU colony assay of peripheral blood on day 7 after 5 daily subcutaneous injections; type: in vivo, DBA/2J male mice
Method: Mobilization of hematopoietic stem and progenitor cells from bone marrow into peripheral blood is important for tissue regeneration. However, this physiological mechanism is often insufficient, including in elderly patients and people with diabetes. In order to look at the ability of Compound X mobilized stem cells to mediate tissue regeneration, multiple in vivo injections of Compound X were administered. A group of DBA/2J male mice were injected subcutaneously for 5 consecutive days with 250 ug/kg Compound X in Saline. Another group of mice received injections of vehicle only. Peripheral blood from 3 mice from each of these groups was then harvested from the orbital plexus at 7 days post initial injection. Blood was also harvested and pooled from 3 naïve mice to serve as an additional control group. To determine mobilization of pluripotent colony-forming cells from bone marrow into peripheral blood, mononuclear cells obtained from blood were plated into MethoCult 3434 media (Stem Cell Technologies 03434). Briefly, peripheral blood from three mice was pooled, diluted (1:1, v/v) with 0.9% saline (APP Pharmaceutical) and layered (2:1, v/v) onto 1-Step™1.077 A (Accurate Chemicals AN224510) in 15-ml centrifuge tubes. Cells were centrifuged at 600×g for 20 min at room temperature. The mononuclear cells were harvested from the interface between the plasma layer and the 1-Step™ A solution using a 1-ml syringe and 16G blunt-end needle (Stem Cell Technologies 28120). The cells were transferred to 15-ml centrifuge tubes and washed twice in 1×PBS. The cells were placed into 35-mm Petri dishes at 100,000 cells per dish with 5 dishes per group. Cells incubated for 10 days in a 37° C. and 5% CO2 humidified incubator. CFU-GM colonies consisting of granulocytic and monocytic cells and CFU-GEMM colonies representing mixed cell populations of granulocytes, macrophages and erythroid cells were then scored using an inverted microscope. Blood was taken at Zeitgeber Time 4 (ZT4) which corresponded to the physiological time of cell emigration from bone marrow—the circadian stem cell mobilization peak.

[3] = 250 ug/kg s.c. 5 consecutive days, day 7
[4] = 250 ug/kg s.c. 5 consecutive days, day 7, individual dishes
[5] = 250 ug/kg/day for 5 days, day 7
[6] = DBA mice, multiple s.c. 250 ug/kg

## FPHFDLSHGSAQV [Compound X, tridecapeptide that acts on stem cells]
[1]; 5 ng/mL Compound X
  interference with the effect of AMD3100 or anti CXCR4 antibody on migration: did not interfere
[1]; cells expanded with 5 ng/mL and/or pulsed 3 hours with Compound X, 100 ng/mL SDF-1α, 4 hours
  CD34+ cell Transwell migration toward SDF-1α: no significant difference; also recorded: had no effect
[2]; [3]
  CFU-GEMM AVG: 11.4 colonies/100,000 MNCs
  CFU-GEMM Average: 79.8 Colonies/ml of Peripheral Blood
  CFU-GM AVG: 12.4 colonies/100,000 MNCs
  CFU-GM Average: 86.8 Colonies/ml of Peripheral Blood
[2]; [4]
  CFU-GEMM Colony #: 8 colonies/100,000 MNCs (2×) and 13 colonies/100,000 MNCs and 12 colonies/100,000 MNCs and 16 colonies/100,000 MNCs
  CFU-GM Colony #: 13 colonies/100,000 MNCs (2×) and 14 colonies/100,000 MNCs (2×) and 8 colonies/100,000 MNCs
[2]; [5]
  number of circulating CFU-GM: did not change
  total CFU-GEMM number in circulation vs naïve or vehicle mice: 3 times higher
[2]; [6]
  increase in CFU-GEMM number per ml of blood vs saline control group: 3.3 fold
  increase in CFU-GEMM number per ml of blood vs untreated control group: 3.8 fold
